Data as given in patent publication US8927717B1, “Thiochromeno[2,3-c]quinolin-12-one derivatives, preparation method and application thereof” (National Defense Medical Center, priority 2014, dated 2015).

Assays:
CCRF-CEM = type: cell-based; settings: CCRF-CEM; 10^−5 molar
A549/ATCC = type: cell-based; settings: A549/ATCC; 10^−5 molar
HOP-92 = type: cell-based; settings: HOP-92; 10^−5 molar
HCT-15 = type: cell-based; settings: HCT-15; 10^−5 molar
SF-295 = type: cell-based; settings: SF-295; 10^−5 molar
SF-539 = type: cell-based; settings: SF-539; 10^−5 molar
SNB-75 = type: cell-based; settings: SNB-75; 10^−5 molar
SK-MEL-2 = type: cell-based; settings: SK-Mel-2; 10^−5 molar
IGROV1 = type: cell-based; settings: IGROV1; 10^−5 molar
OVCAR-4 = type: cell-based; settings: OVCAR-4; 10^−5 molar
OVCAR-5 = type: cell-based; settings: OVCAR-5; 10^−5 molar
CAKI-1 = type: cell-based; settings: CAKI-1; 10^−5 molar
SN12C = type: cell-based; settings: SN12C; 10^−5 molar
UO-31 = type: cell-based; settings: UO-31; 10^−5 molar
DU-145 = type: cell-based; settings: DU-145; 10^−5 molar
HS 578T = type: cell-based; settings: HS 578T; 10^−5 molar
BT-549 = type: cell-based; settings: BT-549; 10^−5 molar
HCC-2998 = type: cell-based; settings: HCC-2998; 10^−5 molar
UACC-257 = type: cell-based; settings: UACC-257; 10^−5 molar

Compound O=c1c2cc(Cl)ccc2sc2c(NCc3ccc4c(c3)OCO4)nc3ccccc3c12 [Compound N27, 6-((Benzo[d][1,3]dioxol-5-ylmethyl)amino)-10-chloro-12H-thiochromeno[2,3-c]quinolin-12-one] has a Growth percent (CCRF-CEM) of 88.86%, a Growth percent (A549/ATCC) of 104.74% and a Growth percent (HOP-92) of 45.39%. For the same compound, the Growth percent (HCT-15) was 77.41%, the Growth percent (SF-295) was 94.39% and the Growth percent (SF-539) was 77.12%. The Growth percent (SNB-75) was 57.14%, the Growth percent (SK-MEL-2) was 95.57% and the Growth percent (IGROV1) was 67.81%. It also gave a Growth percent (OVCAR-4) of 53.73%, a Growth percent (OVCAR-5) of 84.38% and a Growth percent (CAKI-1) of 75.09%. It also gave a Growth percent (SN12C) of 85.53%, a Growth percent (UO-31) of 80.98% and a Growth percent (DU-145) of 72.44%. For the same compound, the Growth percent (HS 578T) was 70.49%, the Growth percent (BT-549) was 111.06% and the melting point was 205 to 206 °C.

Work on O=c1c2cc(Cl)ccc2sc2c(NCCc3ccccc3)nc3ccccc3c12 [Compound N30, 10-Chloro-6-(phenethylamino)-12H-thiochromeno[2,3-c]quinolin-12-one] yielded a Growth percent (CCRF-CEM) of 114.29%, a Growth percent (A549/ATCC) of 88.44% and a Growth percent (HOP-92) of 73.02%. The Growth percent (HCC-2998) was 113.77%, the Growth percent (HCT-15) was 91.82% and the Growth percent (SF-295) was 95.46%. For the same compound, the Growth percent (SF-539) was 97.86%, the Growth percent (SNB-75) was 68.76% and the Growth percent (SK-MEL-2) was 106.33%. The Growth percent (UACC-257) was 109.29%, the Growth percent (OVCAR-4) was 79.53% and the Growth percent (OVCAR-5) was 102.03%. For the same compound, the Growth percent (CAKI-1) was 81.04%, the Growth percent (SN12C) was 86.54% and the Growth percent (UO-31) was 75.82%. For the same compound, the Growth percent (DU-145) was 100.17%, the Growth percent (HS 578T) was 87.62% and the Growth percent (BT-549) was 106.85%. The melting point was 151 to 152 °C.

With COc1ccc(CCNc2nc3ccccc3c3c(=O)c4cc(Cl)ccc4sc23)cc1 [Compound N31, 10-Chloro-6-((4-methoxyphenethyl)amino)-12H-thiochromeno[2,3-c]quinolin-12-one] the Growth percent (CCRF-CEM) was 100.93%, the Growth percent (A549/ATCC) was 93.49% and the Growth percent (HOP-92) was 67.57%. The Growth percent (HCC-2998) was 105.27%, the Growth percent (HCT-15) was 100.67% and the Growth percent (SF-295) was 95.31%. It also gave a Growth percent (SF-539) of 95.67%, a Growth percent (SNB-75) of 74.50% and a Growth percent (SK-MEL-2) of 113.12%. The Growth percent (UACC-257) was 98.66%, the Growth percent (IGROV1) was 86.73% and the Growth percent (OVCAR-4) was 79.00%. The Growth percent (OVCAR-5) was 100.83%, the Growth percent (CAKI-1) was 85.75% and the Growth percent (SN12C) was 94.23%. It also gave a Growth percent (UO-31) of 72.12%, a Growth percent (DU-145) of 107.03% and a Growth percent (HS 578T) of 87.49%. It also gave a Growth percent (BT-549) of 105.24% and a melting point of 214 to 215 °C.
